Experimental data from publication PMC4027214 (2014).

Columns and labels:
[1] = system: TFF1-ERE (DNA, duplex) AGGTCACGGTGGCCA/TGGCCACCGTGACCT; assay: NMR titration and solution structure; conditions: 50 mM sodium phosphate (Na+); pH 7, 25 °C; bis-intercalation, each drug one strong and one weak intercalation site
[2] = system: TFF1-ERE (DNA, duplex) AGGTCACGGTGGCCA/TGGCCACCGTGACCT; assay: fluorescent intercalator displacement (FID); conditions: 5 mM sodium phosphate (Na+); pH 7, 25 °C; ethidium bromide displaced; DNA 16.7 μM; fit assumes KD1 = KD2; apparent

Cc1cccc2nc3cccc(C(=O)NCCNCCNCCNC(=O)c4cccc5nc6cccc(C)c6nc45)c3nc12
binding [1]: yes | KD [2]: ~ 9.65 × 10^−7 M
